Data as given in ChEMBL document CHEMBL1151020, “Synthesis of neoeudistomin analogsAs potential filaricides” (1995).

System: not listed separately
Test: Antifilarial (Microfilariae) activity (mf) against Litomosoides carinii in cotton rats at a dose of 30 mg/kg for 5 days by ip administration; Inactive
Format: functional
Details: route intraperitoneal
Work on `c1coc(C2NCCc3c2[nH]c2ccccc32)c1` (stereo unspecified) yielded an Activity of 0.
`c1ccc2c3c([nH]c2c1)C(c1ccsc1)NCC3` (stereo unspecified) showed an Activity of 0.
Work on `c1csc(C2NCCc3c2[nH]c2ccccc32)c1` (stereo unspecified) yielded an Activity of 0.
Work on `c1csc(-c2nccc3c2[nH]c2ccccc23)c1` yielded an Activity of 0.
With `c1coc(-c2nccc3c2[nH]c2ccccc23)c1` the Activity was 0.

System: Rattus norvegicus
Test: Antifilarial (Microfilariae) activity (mf) against Litomosoides carinii in cotton rats at a dose of 30 mg/kg for 5 days by ip administration
Format: functional
Details: route intraperitoneal
With `c1c[nH]c(-c2nccc3c2[nH]c2ccccc23)c1` the Activity was 73.

System: Rattus norvegicus
Test: Antifilarial (Microfilariae) activity (mf) against Acanthocheilonema viteae in Mastomys natalensis at a dose of 350 mg/kg for 5 days by ip administration
Format: functional
Details: route intraperitoneal
`CCN(CC)C(=O)N1CCN(C)CC1.O=C(O)CC(O)(CC(=O)O)C(=O)O` [DIETHYLCARBAMAZINE CITRATE] showed an Activity greater than 90.

System: not listed separately
Test: Macrofilaricidal activity (maf) against Litomosoides carinii in cotton rats at a dose of 30 mg/kg for 5 days by ip administration; Inactive
Format: functional
Details: route intraperitoneal
With `c1coc(C2NCCc3c2[nH]c2ccccc32)c1` (stereo unspecified) the Activity was 0.
In the case of `c1ccc2c3c([nH]c2c1)C(c1ccsc1)NCC3` (stereo unspecified), the Activity is reported as 0.
For `CCN(CC)C(=O)N1CCN(C)CC1.O=C(O)CC(O)(CC(=O)O)C(=O)O` [DIETHYLCARBAMAZINE CITRATE], the Activity was 0.
For `c1csc(C2NCCc3c2[nH]c2ccccc32)c1` (stereo unspecified), the Activity was 0.
With `c1csc(-c2nccc3c2[nH]c2ccccc23)c1` the Activity was 0.

System: not listed separately
Test: Macrofilaricidal activity (maf) against Acanthocheilonema viteae in Mastomys natalensis at a dose of 30 mg/kg for 5 days by ip administration; Inactive
Format: functional
Details: route intraperitoneal
`CCN(CC)C(=O)N1CCN(C)CC1.O=C(O)CC(O)(CC(=O)O)C(=O)O` [DIETHYLCARBAMAZINE CITRATE] showed an Activity of 0.
Compound `c1c[nH]c(-c2nccc3c2[nH]c2ccccc23)c1` has an Activity of 0.
Work on `c1csc(-c2nccc3c2[nH]c2ccccc23)c1` yielded an Activity of 0.
With `c1coc(-c2nccc3c2[nH]c2ccccc23)c1` the Activity was 0.
